US20070128217A1 (priority 2003, published 2007)

Legend:
[1] = test system: antibodies in sera from SARS patients (sera 1a, 1b, 2, 6, 37, 62, London, SARS-yellow, SARS-green); assay type: binding, human; set-up: Binding of serum 6 to linear peptides of protein X1 of SARS-CoV Urbani / Binding of serum 37 to linear peptides of protein X1 of SARS-CoV Urbani / Binding of serum 6 to looped/cyclic peptide (PEPSCAN-ELISA) / Binding of serum 37 to looped/cyclic peptide (PEPSCAN-ELISA) / Binding of serum 37 to looped/cyclic peptides of protein X1 of SARS-CoV Urbani / Binding of serum 6 to linear peptides of protein X2 / Binding of serum 37 to linear peptides of protein X2 / Binding of serum 37 to looped/cyclic peptides of protein X2 of SARS-CoV Urbani / Binding of serum 6 to linear peptides of protein M of SARS-CoV Urbani / Binding of serum 37 to linear peptides of protein M of SARS-CoV Urbani / Binding of serum 6 to looped/cyclic peptides of protein M of SARS-CoV Urbani / Binding of serum 37 to looped/cyclic peptides of protein M of SARS-CoV Urbani / Binding of serum 6 to linear peptides of protein X3 of SARS-CoV Urbani / Binding of serum 37 to linear peptides of protein X3 of SARS-CoV Urbani / Binding of serum 37 to looped/cyclic peptides of protein X3 of SARS-CoV Urbani / Binding of serum 6 to linear peptides of protein X4 of SARS-CoV Urbani / Binding of serum 37 to linear peptides of protein X4 of SARS-CoV Urbani / Binding of serum 37 to looped/cyclic peptides of protein X4 of SARS-CoV Urbani / Binding of serum 6 to linear peptides of protein X5 of SARS-CoV Urbani / Binding of serum 37 to linear peptides of protein X5 of SARS-CoV Urbani / Binding of serum 37 to looped/cyclic peptides of protein X5 of SARS-CoV Urbani / Binding of serum 6 to linear peptides of protein N of SARS-CoV Urbani / Binding of serum 37 to linear peptides of protein N of SARS-CoV Urbani / Binding of serum 6 to linear peptide (PEPSCAN-ELISA) / Binding of serum 1a to looped/cyclic peptides of protein N of SARS-CoV Urbani / Binding of serum 1b to looped/cyclic peptides of protein N of SARS-CoV Urbani / Binding of serum 2 to looped/cyclic peptides of protein N of SARS-CoV Urbani / Binding of serum 6 to looped/cyclic peptides of protein N of SARS-CoV Urbani / Binding of serum 37 to looped/cyclic peptides of protein N of SARS-CoV Urbani / Binding of serum 62 to looped/cyclic peptides of protein N of SARS-CoV Urbani / Binding of serum London to looped/cyclic peptides of protein N of SARS-CoV Urbani / Binding of serum SARS-green to looped/cyclic peptides of protein N of SARS-CoV Urbani: unit not given here
[2] = test system: control sera (pooled serum of ten healthy LUMC hospital workers; commercial negative donor pooled serum from the Dutch bloodbank); assay type: binding, human; set-up: Binding of Control serum LUMC to linear peptides / Binding of Control serum Blood-bank to linear peptides / Binding of Control serum LUMC to looped peptides / Binding of Control Serum Blood-Bank to Looped peptides / Binding of Control serum LUMC to linear peptides of the protein M of SARS-CoV Urbani / Binding of Control serum Blood-bank to linear peptides of the protein M of SARS-CoV Urbani / Binding of Control serum LUMC to looped peptides of the protein M of SARS-CoV Urbani / Binding of Control Serum Blood-Bank to Looped peptides of the protein M of SARS-CoV Urbani: unit not given here
[3] = test system: rabbit serum obtained by immunizing a rabbit with the SARS-CoV strain Frankfurt 1; assay type: binding; set-up: Binding of a rabbit serum to linear peptides / Binding of a rabbit serum to looped peptides / Rabbit serum linear peptides / Rabbit serum looped peptides / Binding of a rabbit serum to linear peptides of protein N of SARS-CoV Urbani (Rabbit serum linear peptides) / Binding of a rabbit serum to looped/cyclic peptides of protein N of SARS-CoV Urbani (Rabbit serum looped peptides): unit not given here

Question: Which results are given for KMLHSSSLTSLLKTH?
Answer: Binding of serum 1a to linear peptides of protein X2 [1]: 0.6; Binding of serum 1a to looped/cyclic peptides of protein X2 of SARS-CoV Urbani [1]: 0.3; Binding of serum 1b to linear peptides of protein X2 [1]: 0.5; Binding of serum 1b to looped/cyclic peptides of protein X2 of SARS-CoV Urbani [1]: 0.4; Binding of serum 2 to linear peptides of protein X2 [1]: 0.5; Binding of serum 2 to looped/cyclic peptides of protein X2 of SARS-CoV Urbani [1]: 0.2; Binding of serum 6 to linear peptides of protein X2 [1]: 0.6; Binding of serum 6 to looped/cyclic peptides of protein X2 of SARS-CoV Urbani [1]: 0.2; Binding of serum 37 to linear peptides of protein X2 [1]: 0.5; Binding of serum 37 to looped/cyclic peptides of protein X2 of SARS-CoV Urbani [1]: 0.2; Binding of serum 62 to linear peptides of protein X2 [1]: 0.6; Binding of serum 62 to looped/cyclic peptides of protein X2 of SARS-CoV Urbani [1]: 0.3; Binding of serum London to linear peptides of protein X2 [1]: 0.9; Binding of serum London to looped/cyclic peptides of protein X2 of SARS-CoV Urbani [1]: 0.2; Binding of serum SARS-green to linear peptides of protein X2 [1]: 0.6; Binding of serum SARS-green to looped/cyclic peptides of protein X2 of SARS-CoV Urbani [1]: 0.7; Binding of serum SARS-yellow to linear peptides of protein X2 [1]: 0.4; Binding of serum SARS-yellow to looped/cyclic peptides of protein X2 of SARS-CoV Urbani [1]: 0.3; Binding of Control Serum Blood-Bank to Looped peptides [2]: 0.3; Binding of Control serum Blood-bank to linear peptides [2]: 0.7; Binding of Control serum LUMC to linear peptides [2]: 0.5; Binding of Control serum LUMC to looped peptides [2]: 0.4; Binding of a rabbit serum to linear peptides [3]: 0.2; Binding of a rabbit serum to looped peptides [3]: 0.2

Question: With KRWQLALYKGFQFIC as the sequence, how does the “Binding of serum 1a to linear peptides of protein X1 of SARS-CoV Urbani” value [1] read?
Answer: 0.6

Question: And the “Binding of serum 1a to looped/cyclic peptide (PEPSCAN-ELISA)” value [1]?
Answer: 0.6

Question: What about the “Binding of serum 1b to linear peptides of protein X1 of SARS-CoV Urbani” value [1] of the same sequence?
Answer: 0.5

Question: And the “Binding of serum 1b to looped/cyclic peptide (PEPSCAN-ELISA)” value [1]?
Answer: 0.4

Question: What about the “Binding of serum 2 to linear peptides of protein X1 of SARS-CoV Urbani” value [1] of the same sequence?
Answer: 0.5

Question: What about the “Binding of serum 2 to looped/cyclic peptide (PEPSCAN-ELISA)” value [1] of the same sequence?
Answer: 0.5

Question: What about the “Binding of serum 6 to linear peptides of protein X1 of SARS-CoV Urbani” value [1] of the same sequence?
Answer: 0.6

Question: What about the “Binding of serum 6 to looped/cyclic peptide (PEPSCAN-ELISA)” value [1] of the same sequence?
Answer: 0.8

Question: And the “Binding of serum 37 to linear peptides of protein X1 of SARS-CoV Urbani” value [1]?
Answer: 0.6

Question: And the “Binding of serum 37 to looped/cyclic peptide (PEPSCAN-ELISA)” value [1]?
Answer: 0.6

Question: What about the “Binding of serum 62 to linear peptides of protein X1 of SARS-CoV Urbani” value [1] of the same sequence?
Answer: 0.5

Question: What about the “Binding of serum 62 to looped/cyclic peptide (PEPSCAN-ELISA)” value [1] of the same sequence?
Answer: 0.6

Question: What about the “Binding of serum London to linear peptides of protein X1 of SARS-CoV Urbani” value [1] of the same sequence?
Answer: 0.2

Question: And the “Binding of serum London to looped/cyclic peptide (PEPSCAN-ELISA)” value [1]?
Answer: 1.1

Question: And the “Binding of serum SARS-green to linear peptides of protein X1 of SARS-CoV Urbani” value [1]?
Answer: 0.1

Question: And the “Binding of serum SARS-green to looped/cyclic peptide (PEPSCAN-ELISA)” value [1]?
Answer: 0.3

Question: And the “Binding of serum SARS-yellow to linear peptides of protein X1 of SARS-CoV Urbani” value [1]?
Answer: 0.2

Question: And the “Binding of serum SARS-yellow to looped/cyclic peptide (PEPSCAN-ELISA)” value [1]?
Answer: 0.5

Question: What about the “Binding of Control Serum Blood-Bank to Looped peptides” value [2] of the same sequence?
Answer: 0.7

Question: And the “Binding of Control serum Blood-bank to linear peptides” value [2]?
Answer: 0.6

Question: And the “Binding of Control serum LUMC to linear peptides” value [2]?
Answer: 0.5

Question: And the “Binding of Control serum LUMC to looped peptides” value [2]?
Answer: 0.7

Question: What about the “Binding of a rabbit serum to linear peptides” value [3] of the same sequence?
Answer: 0.1

Question: What about the “Binding of a rabbit serum to looped peptides” value [3] of the same sequence?
Answer: 0.8

Question: With KSKNPLLYDANYFVC as the sequence, how does the “Binding of serum 1a to linear peptides of protein X1 of SARS-CoV Urbani” value [1] read?
Answer: 0.7

Question: And the “Binding of serum 1a to looped/cyclic peptide (PEPSCAN-ELISA)” value [1]?
Answer: 0.6

Question: And the “Binding of serum 1b to linear peptides of protein X1 of SARS-CoV Urbani” value [1]?
Answer: 0.4

Question: What about the “Binding of serum 1b to looped/cyclic peptide (PEPSCAN-ELISA)” value [1] of the same sequence?
Answer: 0.5

Question: And the “Binding of serum 2 to linear peptides of protein X1 of SARS-CoV Urbani” value [1]?
Answer: 0.4

Question: What about the “Binding of serum 2 to looped/cyclic peptide (PEPSCAN-ELISA)” value [1] of the same sequence?
Answer: 0.4

Question: And the “Binding of serum 6 to linear peptides of protein X1 of SARS-CoV Urbani” value [1]?
Answer: 0.4

Question: What about the “Binding of serum 6 to looped/cyclic peptide (PEPSCAN-ELISA)” value [1] of the same sequence?
Answer: 0.3

Question: What about the “Binding of serum 37 to linear peptides of protein X1 of SARS-CoV Urbani” value [1] of the same sequence?
Answer: 0.5

Question: What about the “Binding of serum 37 to looped/cyclic peptide (PEPSCAN-ELISA)” value [1] of the same sequence?
Answer: 0.6

Question: What about the “Binding of serum 62 to linear peptides of protein X1 of SARS-CoV Urbani” value [1] of the same sequence?
Answer: 0.4

Question: What about the “Binding of serum 62 to looped/cyclic peptide (PEPSCAN-ELISA)” value [1] of the same sequence?
Answer: 0.6

Question: What about the “Binding of serum London to linear peptides of protein X1 of SARS-CoV Urbani” value [1] of the same sequence?
Answer: 0.2

Question: And the “Binding of serum London to looped/cyclic peptide (PEPSCAN-ELISA)” value [1]?
Answer: 0.2

Question: And the “Binding of serum SARS-green to linear peptides of protein X1 of SARS-CoV Urbani” value [1]?
Answer: 0.2

Question: And the “Binding of serum SARS-green to looped/cyclic peptide (PEPSCAN-ELISA)” value [1]?
Answer: 0.4

Question: And the “Binding of serum SARS-yellow to linear peptides of protein X1 of SARS-CoV Urbani” value [1]?
Answer: 0.3

Question: What about the “Binding of serum SARS-yellow to looped/cyclic peptide (PEPSCAN-ELISA)” value [1] of the same sequence?
Answer: 0.4

Question: And the “Binding of Control Serum Blood-Bank to Looped peptides” value [2]?
Answer: 0.5

Question: And the “Binding of Control serum Blood-bank to linear peptides” value [2]?
Answer: 0.3

Question: And the “Binding of Control serum LUMC to linear peptides” value [2]?
Answer: 0.7

Question: And the “Binding of Control serum LUMC to looped peptides” value [2]?
Answer: 0.6

Question: What about the “Binding of a rabbit serum to linear peptides” value [3] of the same sequence?
Answer: 0.1

Question: What about the “Binding of a rabbit serum to looped peptides” value [3] of the same sequence?
Answer: 0.6
